Results on eight compounds are retold here after US10287283B2, “Read-through compound prodrugs suppressing premature nonsense mutations” (The Regents of the University of California, priority 2014, dated 2019).

For series [1], the system named is normal termination codons. The conditions noted are these: cited from earlier work.
In series [2] the test system is lymphoblastoid cell lines derived from A-T patients. Conditions: each of the three types of nonsense mutations (TGA>TAA>TAG); cited from earlier work.
A short description of series [3]: Aqueous solubility. Type of series: physicochemical. The method, then:
The solubility of selected compounds was tested and compared to that of comparative compound 5. To 5 mg of each test compound, water was slowly added initially in 0.5 mL and then 0.1 mL increments with vortexing for approximately 1 minute in between each aliquot of water addition and visually inspected for homogeneity. […] Table 1 provides the aqueous solubility of various prodrugs.

For series [4], the system named is mdx cells. Conditions: cells in culture; cited from earlier work.
The subject of series [5] is mdx mice. Kind of series: Dystrophin expression after intramuscular injection into TA muscles. The series is classed as in vivo. Conditions: for number of dystrophin positive fibers: TA muscle of mdx mice, intramuscular injection, compound 5 compared with prodrugs; for dystrophin staining in TA muscles: mdx mice, two weeks after intramuscular injection, compared to DMSO alone. The text has this: FIG. 8 provides plots showing dystrophin expression after intramuscular injection. Panel (A) provides plots showing dystrophin staining in TA muscles of mdx mice injected with RTC13 or its derivatives and analyzed two weeks after delivery of compounds and compared to muscles treated with DMSO alone. Dystrophin expression was evident in muscles that received the compounds but not in sham-injected muscles. […] (N=4 muscles per compound; scale bar: 50 μ ? ) Panel (B) provides plots showing the number of dystrophin positive fibers determined across the length of the muscle. […] Shown here is the average number of dystrophin positive fibers per cross-sectional area containing the highest number of positives. (N=4 muscles per compound; *: p=0.0008; **: p≤0.04). RTC13: compound 5; […]: compound 16; […]: compound 20; […]: compound 12; and […]: compound 8.

Series [6] has as its system mdx mice. The conditions noted are these: cited from earlier work.
The nature of series [7]: Pharmacokinetics studies after oral administration of compound 8 (tissue levels). The series is classed as in vivo. The conditions noted are these: C57BL/10 mice; for level in heart: oral compound 8 at 10 mg/kg and 30 mg/kg; for level in biceps / level in gastrocnemius: oral compound 8 at 10 mg/kg. How it is done: FIG. 19 provides plots showing the results of pharmacokinetics studies in C57BL/10 mice after oral administration of compound 8 in gastrocnemius. The compound was administered at the indicated dosages in 6-8 weeks old C57BL/10 mice and tissues were analyzed in gastrocnemius 15 min, 30 min, 1 hr, 4 hrs, 6 hrs, and 24 hrs after gavage. Compound 8 and RTC13 (compound 5) were not detected in muscles isolated from mice that received compound 8 at a dose of 10 mg/kg. RTC13: compound 5; and 13Y: compound 8.
FIG. 20 provides plots showing the results of pharmacokinetics studies in C57BL/10 mice after oral administration of compound 8 in biceps. The compound was administered at the indicated dosages in 6-8 weeks old C57BL/10 mice and tissues were analyzed in biceps 15 min, 30 min, 1 hr, 4 hrs, 6 hrs and 24 hrs after gavage. Compound 8 and RTC13 (compound 5) were not detected in muscles isolated from mice that received compound 8 at a dose of 10 mg/kg. RTC13: compound 5; and 13Y: compound 8.
FIG. 21 provides plots showing the results of pharmacokinetics studies in C57BL/10 mice after oral administration of compound 8 in heart. The compound was administered at the indicated dosages in 6-8 weeks old C57BL/10 mice and tissues were analyzed in heart 15 min, 30 min, 1 hr, 4 hrs, 6 hrs, and 24 hrs after gavage. Compound 8 and RTC13 (compound 5) were not detected in muscles isolated from mice that received compound 8 at a dose of 10 mg/kg and 30 mg/kg. RTC13: compound 5; and 13Y: compound 8.

The test system of series [8] is mdx mice. The experiment in a line: Forelimb grip test after oral administration. Type of series: in vivo. Conditions: oral administration for up to one month. The text has this: (§1) FIG. 24 provides plots showing functional improvement in mdx mice after oral administration of compound 8 for up to one month. Panel (A) provides plots showing the forelimb grip test that was used to assess the effects of systemic administration of RTCs on muscle strength. […] (N=5 mice per treatment group; *p<0.05; **p<0.005). Panel (B) provides plots showing the results obtained using the wire test. […] (N=6 mice per treatment group; *p<0.05; **p=0.005). 13Y: compound 8.

The test system of series [9] is mdx mice. The experiment in a line: Wire test after oral administration. The conditions noted are these: oral administration for up to one month. The series is classed as in vivo.
Text: as §1

The subject of series [10] is mdx mice. The experiment in a line: Dystrophin expression in muscles after oral administration for one month. The conditions noted are these: three times per day for one month, 30 mg/kg or 60 mg/kg. The series is classed as in vivo. How it is done:
FIG. 23 provides images of microscopic images obtained from muscles isolated from mdx mice after oral administration of compound 8. Compounds were administered in 6-8 weeks old mdx mice three times per day for one month at the indicated dosages. Dystrophin expression was evident in muscles that received the compounds but not in sham-injected muscles. […] 13Y: compound 8.

Series [11] is described as follows: Serum chemistry analyses. Type of series: in vivo. Conditions: mdx mice; for serum levels of albumin, ALP, total bilirubin, LDH, cholesterol, total protein, and glucose: 30 or 60 mg/kg three times per day up to one month. How it is done:
FIG. 26 provides the results of the serum chemistry analyses of mdx mice treated with vehicle, PTC 124 at a dose of 30 mg/kg, PTC 124 at a dose of 60 mg/kg, compound 8 at a dose of 30 mg/kg or compound 8 at a dose of 60 mg/kg three times per day at intervals of 4 hrs for up to one month. […] Values are expressed as mean plus or minus Standard Deviation (±SD). The symbol * indicates statistical significance compared to mdx treated with vehicle only. The symbol † indicates statistical significance compared to wild type (C57BL/10) untreated mice. (N=4 mice per treatment group; p≤0.05). 13Y: compound 8.

The test system of series [12] is mdx mice. Kind of series: In vitro force measurement of diaphragm muscles (eccentric contractions). Type of series: in vivo. The method, then:
FIG. 25 provides plots showing in vitro force measurement of diaphragm muscles of mdx mice treated with vehicle, compound 8 at a dose of 30 mg/kg or compound 8 at a dose of 60 mg/kg three times per day at intervals of 4 hrs for up to one month. Muscles isolated from untreated and treated mice muscles were subjected to a series of five eccentric contractions with a 5-min rest between contractions. Results were compared to those of wild type (C57BL/10) mice. Panel (A) provides plots showing the decrease in force (in percentage) obtaining following eccentric contractions over the course of the analyses. […] Plot (B) show the results of the decrement in force (in percentage) obtained in mice treated with compound 8. […] (N=4 mice per treatment group, *: p≤0.05; **: p≤0.03). 13Y: compound 8.

For series [13] the following is noted: phase-I clinical study in cystic fibrosis; cited from earlier work.
The conditions of series [14]: Duchenne boys; cited from earlier work.
Series [15] has as its target FLuc (firefly luciferase) reporter (Photinus pyralis, UniProt P08659). Conditions: cited from earlier work.
[16] abbreviates: thermodynamic from solid, water, ambient pH, room temperature, read-out: Solubility in (mg/mL) water at ambient pH, at room temperature.

In brackets after ≈: the same amount, converted by molar mass. Structures can show the parent of a compound that is named as a salt. Where two headings read alike, the source gives them in different places. Bounds are passed on as bounds.

FLuc (firefly luciferase) reporter, sequence (P08659 whole entry): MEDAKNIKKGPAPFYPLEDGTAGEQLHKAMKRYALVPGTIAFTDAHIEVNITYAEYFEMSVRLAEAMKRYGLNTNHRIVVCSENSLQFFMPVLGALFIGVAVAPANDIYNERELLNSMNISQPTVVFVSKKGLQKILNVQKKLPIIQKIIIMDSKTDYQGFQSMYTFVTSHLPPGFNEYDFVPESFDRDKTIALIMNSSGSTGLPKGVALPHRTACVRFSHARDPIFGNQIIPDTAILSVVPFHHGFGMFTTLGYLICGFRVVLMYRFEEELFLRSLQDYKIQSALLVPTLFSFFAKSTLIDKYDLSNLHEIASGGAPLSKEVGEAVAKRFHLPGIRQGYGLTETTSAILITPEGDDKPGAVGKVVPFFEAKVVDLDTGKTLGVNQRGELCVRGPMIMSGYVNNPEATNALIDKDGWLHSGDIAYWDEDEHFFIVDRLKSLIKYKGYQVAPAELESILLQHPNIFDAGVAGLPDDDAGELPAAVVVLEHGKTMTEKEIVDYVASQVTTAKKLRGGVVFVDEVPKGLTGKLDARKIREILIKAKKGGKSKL

With `N=C1NC(=O)/C(=C/c2ccc(-c3ccccc3[N+](=O)[O-])o2)S1` [Compound 5, (5Z)-2-imino-5-([5-(2-nitrophenyl)furan-2-yl]methylidene)-1,3-thiazolidin-4-one], the “read-through of normal termination (stop) codons” value in series [1] is listed as “not read-through normal termination codons”. In [2], the “activity in A-T lymphoblastoid cell lines” value was “biological activity”. Further, the solubility entry in series [3] is reported as “low solubility”. The dissolution in water result in series [3] (diluted to IL with water, vigorously stirred for up to 12 hr) was “did not appear to dissolve fully”. In addition, the solubility in series [3] (setting [16]) was < 0.005 mg/mL. Moreover, in [4], the “full-length dystrophin in mdx cells” value is “restored full-length dystrophin”. Besides, the “number of dystrophin positive fibers” value in series [5] was “significantly higher number of positive fibers than muscles that received compounds 16 and 20”. Moreover, the “Dystrophin protein detection in muscle groups” value in series [6] (including diaphragm and heart) is “detected in all muscle groups analyzed”. Moreover, the “creatine kinase (CK) levels” value in series [6] (marker of muscle degeneration) is given as “decrease”. The “Dystrophin compared to PTC 124” value in series [6] (mdx mice) is on record as “significantly higher”. Besides, in [6] (over mice that did not receive the RTCs), the muscle strength result is recorded as “significant increase in muscle strength”. Also, in [6] (systemic administration, mdx mice), the “dystrophin expression in skeletal muscles” value is “restores functional levels of dystrophin expression”. Moreover, in series [7], the level in heart result is reported as “not detected”, the level in biceps entry is recorded as “not detected” and the level in gastrocnemius entry is given as “not detected”.

On to `CN1CCN(CC(=O)/N=C2\NC(=O)/C(=C/c3ccc(-c4ccccc4[N+](=O)[O-])o3)S2)CC1` [Compound 8, 2-(4-methylpiperazin-1-yl)-7V-[(2£′,5Z)-5-{[5-(2-nitrophenyl)furan-2-yl]methylidene}-4-oxo-1,3-thiazolidin-2-ylidene]acetamide dihydrochloride], for which the “muscle strength, forelimb grip test” value in series [8] is listed as “significant force recovery”. For the same compound, the “average hanging time, wire test” value in [9] is on record as “more significant than that of sham-injected mice or mice treated with PTC 124”. Further, in series [10], the “dystrophin expression in muscles” value is “higher levels of dystrophin expression than muscles obtained from mdx mice treated with PTC124”. Moreover, the “serum levels of albumin, ALP, total bilirubin, LDH, cholesterol, total protein, and glucose” value in series [11] is recorded as “within normal range”. In series [11] (compared to vehicle alone), the “alanine aminotransferase (ALT)” value is “decrease”, the “blood urea nitrogen (BUN)” value is given as “decrease” and the creatinine entry is “decrease”. Moreover, in [3] (setting [16]), the solubility came to 3.3 mg/mL. The “number of dystrophin positive fibers” value in series [5] was “No significant differences”. In series [12] (30 mg/kg and 60 mg/kg three times per day up to one month), the “decrease in force (in percentage) following eccentric contractions” value was “improvement if loss of force was detected”. In addition, in [12] (60 mg/kg three times per day, compared to vehicle only), the “decrement in force (in percentage)” value was “significantly lower”. In [7], the level in heart result is listed as “not detected”, the level in biceps result is “not detected” and the level in gastrocnemius result was “not detected”.

For `CN(C)CC(=O)/N=C1\NC(=O)/C(=C/c2ccc(-c3ccccc3[N+](=O)[O-])o2)S1` [Compound 12, (£)-N^2,N^2-dimethyl-7V-[(5Z)-5-{[5-(2-nitrophenyl)furan-2-yl]methylidene}-4-oxo-1,3-thiazolidin-2-ylidene]glycinamide hydrochloride], the solubility in series [3] (setting [16]) is 10 mg/mL. Further, in series [5], the “number of dystrophin positive fibers” value is “No significant differences”.

Turning to `O=C1N/C(=N\C(=O)C2CCNCC2)S/C1=C\c1ccc(-c2ccccc2[N+](=O)[O-])o1` [Compound 16, N-[(2ii,5Z)-5-{[5-(2-nitrophenyl)furan-2-yl]methylidene}-4-oxo-1,3-thiazolidin-2-ylidene]piperidine-4-carboxamide hydrochloride], the solubility in series [3] (setting [16]) is 0.18 mg/mL. Also, the “number of dystrophin positive fibers” value in series [5] was “compound 5 showed a significantly higher number of positive fibers”.

`O=C(CN1CCOCC1)/N=C1\NC(=O)/C(=C/c2ccc(-c3ccccc3[N+](=O)[O-])o2)S1` [Compound 20, 2-(morpholin-4-yl)-7V-[(2£′,5Z)-5-{[5-(2-nitrophenyl)furan-2-yl]methylidene}-4-oxo-1,3-thiazolidin-2-ylidene] acetamide]: the solubility in series [3] (setting [16]) amounted to 0.1 mg/mL (≈ 226 µM). Besides, the “number of dystrophin positive fibers” value in [5] was “compound 5 showed a significantly higher number of positive fibers”.

Consider `O=C(O)c1cccc(-c2noc(-c3ccccc3F)n2)c1` [PTC124], for which, in [1], the “read-through of normal termination (stop) codons” value is recorded as “does not induce ribosomal readthrough of normal stop codons”. In series [13], the “readthrough activity compared to aminoglycosides” value is listed as “more efficient readthrough activity than aminoglycosides” and the tolerability result is on record as “generally well tolerated”. The “muscle strength, forelimb grip test” value in series [8] is “No significant improvements”. For the same compound, the “average hanging time, wire test” value in [9] was “No significant improvements”. Moreover, the “efficacy in clinical trials” value in series [14] was “indeterminate efficacy”. The effect on reporter entry in series [15] was “direct effect on the FLuc (firefly luciferase) reporter”. Further, in series [11], the “serum levels of albumin, ALP, total bilirubin, LDH, cholesterol, total protein, and glucose” value is listed as “within normal range”.

Consider `CC(C)(C)c1ccc(O)c(N=Cc2cccc([N+](=O)[O-])c2)c1` [RTC14], for which, in series [5], the “dystrophin staining in TA muscles” value is “Weak expression”.

Consider gentamicin, for which the “dystrophin staining in TA muscles” value in series [5] was “Weak expression”.
